Ends that are not written are not given here. asialo oligosaccharide = not defined here

A short description of series [1]: Test Example 1: stability in plasma. Conditions: PBS 70% / plasma 30%, 37° C., sampled 10 to 1440 minutes. The format is in vitro ADME. On the procedure: 0.1 mg of the peptide prepared in Example 7 or Comparative Example 1 was placed in an Eppendorf tube, and PBS (0.08 ml, 70% of the whole amount) and plasma (0.034 ml, 30% of the whole amount) were sequentially placed therein to bring about the solution amount to 0.114 ml in total. The mixture was allowed to react at 37° C.
The time when plasma was added to the reaction vessel was defined as 0 min. 0.01 ml aliquots were taken from the reaction solution on 10, 30, 60, 180, 360, 720 and 1440 minutes for sampling.
Each sampled reaction solution was mixed with 0.02 ml of 10% trifluoroacetic acid solution prepared in advance in an Eppendorf tube and then centrifuged. A 0.025 ml aliquot of the supernatant of the solution mixture was injected into HPLC to analyze the composition of the reaction solution (reaction monitoring conditions: Shiseido CAPCELL PAK C18, UG120, 250×4.6 mm, developing solvent A: 0.1% aqueous TFA solution, B: 0.1% TFA acetonitrile: water=90:10, gradient A:B=95:5→5:95, 15 min, flow rate: 0.7 ml/min). The results are shown in FIGS. 5 (Example 7) and 6 (Comparative Example 1).

The subject of series [2] is C57BL/6JJcl mice. Description: Test Example 7: Oral Glucose Tolerance Test (OGTT). The class given is in vivo. The note with it: 9 nmol/kg intraperitoneal 30 minutes before glucose 1 mg/g oral. An outline of the steps:
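Overnight-fasted mice received oral glucose 1 mg/g 30 minutes after treatment. Orbital blood taken before and at 30, 60, 120 minutes post-glucose. Blood glucose measured by glucometer.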

For series [3], the system named is type-2 diabetes model mice (BKS.Cg-+Lepr db/+Lepr db/Jcl). Briefly: Test Example 2: effect of lowering blood-sugar levels in db/db mice-1. The class given is in vivo. Conditions: 9 nmol/kg intraperitoneal, 8-week-old male db/db mice, 0-180 minutes. On the procedure: The peptide prepared in each of Examples 1 to 5 or Comparative Example 1 was intraperitoneally administered as the same sample at a dose of […] of body weight (sample concentration: 9 nmol/kg of body weight) to each of three 8-week-old male type-2 diabetes model mice (BKS.Cg−+Lepr^db/Lepr^db/Jcl*). Specifically, the peptide in a PBS solution (9 nmol/10 ml) was intraperitoneally administered at a dose of 10 ml/kg to the BKS.Cg−+Lepr^db/+Lepr^db/Jcl mice (8 week old, male). 0, 30, 60, 90, 120 and 180 minutes after the administration, 0.03 ml of peripheral blood from the retro-orbital venous plexus was collected. The obtained blood was diluted with PBS to 0.3 ml in total, and the solution was centrifuged to separate plasma and hemocyte components. Then, only the plasma component was transferred to an Eppendorf tube separately prepared and refrigerated. A glucose concentration in plasma was measured in accordance with Glucose CII-Test Wako using an absorptiometer. The results were obtained by statistical processing.

Series [4] has as its system db/db (BKS.Cg-+Lepr db/+Lepr db/Jcl) mice. Description: Test Example 8: effect of lowering blood-sugar levels in diabetes model mice. Conditions: 9 nmol/kg intraperitoneal, 10-week-old male mice. The format is in vivo. Put shortly: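 Male db/db mice, 10 weeks old, given oligosaccharide-chain-added GLP-1 peptide or unmodified GLP-1 intraperitoneally in PBS (9 nmol/10 ml, 10 ml/kg). Orbital blood sampled before dosing and at 30, 60, 120, 180 and 300 min; blood glucose read with a glucometer.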

For “19Asn GLP-1-asialo (HAEGTFTSDVSSN(asialo oligosaccharide)LEGQAAKEFIAWLVKGRG; reading uncertain) [Example 7, GLP-1 wherein position 19 is substituted by asialo oligosaccharide chain added Asn]”, the “stability in plasma (HPLC analysis of remaining peptide)” value in series [1] is “mostly remained even after 24 hours”.
`CC[C@H](C)[C@H](NC(=O)[C@H](Cc1ccccc1)NC(=O)[C@H](CCC(=O)O)NC(=O)[C@H](CCCCN)NC(=O)[C@H](C)NC(=O)[C@H](C)NC(=O)[C@H](CCC(N)=O)NC(=O)CNC(=O)[C@H](CCC(=O)O)NC(=O)[C@H](CC(C)C)NC(=O)[C@H](Cc1ccc(O)cc1)NC(=O)[C@H](CO)NC(=O)[C@H](CO)NC(=O)[C@@H](NC(=O)[C@H](CC(=O)O)NC(=O)[C@H](CO)NC(=O)[C@@H](NC(=O)[C@H](Cc1ccccc1)NC(=O)[C@@H](NC(=O)CNC(=O)[C@H](CCC(=O)O)NC(=O)[C@H](C)NC(=O)[C@@H](N)Cc1c[nH]cn1)[C@@H](C)O)[C@@H](C)O)C(C)C)C(=O)N[C@@H](C)C(=O)N[C@@H](Cc1c[nH]c2ccccc12)C(=O)N[C@@H](CC(C)C)C(=O)N[C@H](C(=O)N[C@@H](CCCCN)C(=O)NCC(=O)N[C@@H](CCCNC(=N)N)C(=O)NCC(=O)O)C(C)C` [Comparative Example 1, GLP-1]: in series [1], the “stability in plasma (HPLC analysis of remaining peptide)” value was “mostly degraded by 180 minutes after the plasma addition”. Besides, in series [2], the “effect of suppressing rise in blood-sugar levels in OGTT” value is reported as “small effect of suppressing rise in blood-sugar levels”. Besides, in series [3], the “effect of lowering blood-sugar levels (glucose concentration in plasma)” value is “hardly lowered blood-sugar levels”. For the same compound, the “effect of lowering blood-sugar levels in db/db mice” value in series [4] is on record as “almost equal to those in PBS-administered mice”.

The record behind these values is patent US7985731B2, “Sugar chain added GLP-1 peptide” (Otsuka Chemical Holdings Co., Ltd., priority 2007, dated 2011).
